Assay results from paper PMC8286840, “Identifying SARS-CoV-2 antiviral compounds by screening for small molecule inhibitors of Nsp3 papain-like protease” (Biochemical Journal, 2021).
Where a name gives a salt, the structure may show the parent alone. Read-outs that look alike come from different tables or passages of the source. Where a SMILES comes first, the peptide text is derived from it. [ ]: non-standard residue; d: D form. The star is where a group is joined. Benzoyl(4-tBu) = CC(C)(C)c1ccc(C(=O)*)cc1; Lys(Et2) = CCN(CC)CCCC[C@H](N)C(=O)O

Assays:
[1] = target: T1, SARS-CoV-2 PLpro (nsp3 1564–1878) (Severe acute respiratory syndrome coronavirus 2, UniProt P0DTD1); assay: biochemical; design: FRET-quenched peptide (Pro3) cleavage by PLpro, 10 min pre-incubation, slope over 20 min, normalised to no-compound control; settings: high concentration screen, read-out: % of control remaining
[2] = target: T1, SARS-CoV-2 PLpro (nsp3 1564–1878); assay: biochemical; design: FRET-quenched peptide (Pro3) cleavage by PLpro, 10 min pre-incubation, slope over 20 min, normalised to no-compound control; settings: low concentration screen, read-out: % of control remaining

N#C/C(=C\c1ccc(O)c(O)c1)C(=O)NCc1ccccc1 [Tyrphostin AG 490]
remaining activity at 3.75 µM ([1]; Well no.=1381): 102%
remaining activity at 1.25 µM ([2]; Well no.=1381): 101%

C[C@@H](NC(=O)/C(C#N)=C/c1ccc(O)c(O)c1)c1ccccc1 [Tyrphostin AG 527]
remaining activity at 3.75 µM ([1]; Well no.=1431): 100%
remaining activity at 1.25 µM ([2]; Well no.=1431): 97.8%

N#C/C(=C\c1ccc(O)c(O)c1)C(=O)N1CCc2ccccc21 [Tyrphostin AG 528]
remaining activity at 3.75 µM ([1]; Well no.=1193): 93.3%
remaining activity at 1.25 µM ([2]; Well no.=1193): 92.5%

N#C/C(=C\c1ccc(O)c(O)c1)C(=O)NCCCNC(=O)/C(C#N)=C/c1ccc(O)c(O)c1 [Tyrphostin AG 537]
remaining activity at 3.75 µM ([1]; Well no.=1289): 99.7%
remaining activity at 1.25 µM ([2]; Well no.=1289): 103%

N#C/C(=C\c1ccc(O)c(O)c1)C(=O)c1ccc(O)c(O)c1 [Tyrphostin AG 538]
remaining activity at 3.75 µM ([1]; Well no.=1468): 92.4%
remaining activity at 1.25 µM ([2]; Well no.=1468): 93.5%

N#C/C(=C\c1ccc(O)c(O)c1)C(=O)NCCCc1ccccc1 [Tyrphostin AG 555]
remaining activity at 3.75 µM ([1]; Well no.=1337): 98.7%
remaining activity at 1.25 µM ([2]; Well no.=1337): 101%

N#C/C(=C\c1c[nH]c2ccccc12)C(=O)c1ccc(O)c(O)c1 [Tyrphostin AG 808]
remaining activity at 3.75 µM ([1]; Well no.=1433): 97.2%
remaining activity at 1.25 µM ([2]; Well no.=1433): 98.9%

CC(C)(C)c1cc(/C=C(\C#N)C(N)=S)cc(C(C)(C)C)c1O [Tyrphostin AG 879]
remaining activity at 3.75 µM ([1]; Well no.=1427): 85.7%
remaining activity at 1.25 µM ([2]; Well no.=1427): 95.8%

COc1cc2ncc(-c3ccccc3)nc2cc1OC [Tyrphostin AG 1296]
remaining activity at 3.75 µM ([1]; Well no.=1477): 97.9%
remaining activity at 1.25 µM ([2]; Well no.=1477): 97.5%

COc1cc2ncnc(Nc3cccc(Cl)c3)c2cc1OC [Tyrphostin AG 1478]
remaining activity at 3.75 µM ([1]; Well no.=1191): 100%
remaining activity at 1.25 µM ([2]; Well no.=1191): 100%

CC(C)c1cc(/C=C(\C#N)C(=O)NCCCc2ccccc2)cc(C(C)C)c1O [Tyrphostin SU 1498]
remaining activity at 3.75 µM ([1]; Well no.=5970): 89.5%
remaining activity at 1.25 µM ([2]; Well no.=5970): 90%

N#CC(=C(/N)Sc1ccccc1N)/C(C#N)=C(\N)Sc1ccccc1N [U0126 - 1,4-Diamino-2,3-dicyano-1,4-bis[2-aminophenylthio]butadiene]
remaining activity at 3.75 µM ([1]; Well no.=2346): 96.8%
remaining activity at 1.25 µM ([2]; Well no.=2346): 96.1%

N#CC(=C(/N)Sc1ccccc1N)/C(C#N)=C(\N)Sc1ccccc1N [U0126]
remaining activity at 3.75 µM ([1]; Well no.=1240): 101%
remaining activity at 1.25 µM ([2]; Well no.=1240): 99.2%

C[C@]12C=CC(=O)C=C1CC[C@@H]1C2=CC[C@]2(C)[C@@H](C(=O)CN3CCN(c4cc(N5CCCC5)nc(N5CCCC5)n4)CC3)CC[C@@H]12 [U74389G maleate]
remaining activity at 3.75 µM ([1]; Well no.=3905): 98.2%
remaining activity at 1.25 µM ([2]; Well no.=3905): 103%

NS(=O)(=O)c1ccc(NC(=O)Nc2ccc(F)cc2)cc1 [U-104]
remaining activity at 3.75 µM ([1]; Well no.=8246): 93.1%
remaining activity at 3.75 µM ([1]; Well no.=8566): 103%
remaining activity at 1.25 µM ([2]; Well no.=8246): 98%
remaining activity at 1.25 µM ([2]; Well no.=8566): 103%

COc1ccc2c(c1)CC[C@@H]1[C@@H]2CC[C@]2(C)[C@@H](NCCCCCCN3C(=O)C=CC3=O)CC[C@@H]12 [U-73122 hydrate]
remaining activity at 3.75 µM ([1]; Well no.=5562): 93.8%
remaining activity at 1.25 µM ([2]; Well no.=5562): 93%

COc1ccc2c(c1)CC[C@@H]1[C@@H]2CC[C@]2(C)[C@@H](NCCCCCCN3C(=O)C=CC3=O)CC[C@@H]12 [U-73122]
remaining activity at 3.75 µM ([1]; Well no.=1332): 105%
remaining activity at 1.25 µM ([2]; Well no.=1332): 103%

COc1ccc2c(c1)CC[C@@H]1[C@@H]2CC[C@]2(C)[C@@H](NCCCCCCN3C(=O)CCC3=O)CC[C@@H]12 [U-73343]
remaining activity at 3.75 µM ([1]; Well no.=1380): 102%
remaining activity at 1.25 µM ([2]; Well no.=1380): 101%

C[C@]12C=CC(=O)C=C1CC[C@@H]1C2=CC[C@]2(C)[C@@H](C(=O)CN3CCN(c4cc(N5CCCC5)nc(N5CCCC5)n4)CC3)CC[C@@H]12 [U-74389G maleate]
remaining activity at 3.75 µM ([1]; Well no.=1236): 106%
remaining activity at 1.25 µM ([2]; Well no.=1236): 104%

Cc1c(C)c2c(c(C)c1O)CCC(C)(CN1CCN(c3cc(N4CCCC4)nc(N4CCCC4)n3)CC1)O2 (stereo not drawn) [U-83836 dihydrochloride]
remaining activity at 3.75 µM ([1]; Well no.=1284): 106%
remaining activity at 1.25 µM ([2]; Well no.=1284): 105%

CCCN(CCC)C1Cc2cc(OC)c(OC)cc2C1 [U-99194A maleate]
remaining activity at 3.75 µM ([1]; Well no.=1192): 99.6%
remaining activity at 1.25 µM ([2]; Well no.=1192): 100%

CC(C)Oc1cccnc1N(C)C1CCN(Cc2ccccc2)CC1 [U-101958 maleate]
remaining activity at 3.75 µM ([1]; Well no.=1526): 92.1%
remaining activity at 1.25 µM ([2]; Well no.=1526): 93.8%

O=S(=O)(NCCN1CCNCC1)c1ccc(NC2CCCCC2)c(NCc2ccccc2)c1 [UAMC-3203 hydrochloride]
remaining activity at 3.75 µM ([1]; Well no.=6780): 102%
remaining activity at 1.25 µM ([2]; Well no.=6780): 105%

CN[C@@H]1C[C@H]2O[C@@](C)([C@@H]1OC)n1c3ccccc3c3c4c(c5c6ccccc6n2c5c31)C(=O)N[C@H]4O [UCN-01]
remaining activity at 3.75 µM ([1]; Well no.=2587): 97.5%
remaining activity at 1.25 µM ([2]; Well no.=2587): 95.7%

Brc1c(NC2=NCCN2)ccc2nccnc12 [UK 14,304 (tartrate)]
remaining activity at 3.75 µM ([1]; Well no.=6572): 102%
remaining activity at 1.25 µM ([2]; Well no.=6572): 98.5%

Brc1c(NC2=NCCN2)ccc2nccnc12 [UK 14,304]
remaining activity at 3.75 µM ([1]; Well no.=1238): 97.9%
remaining activity at 1.25 µM ([2]; Well no.=1238): 98.9%

NC(=O)c1noc([C@H](CCCC2CCCCC2)CC(=O)NO)n1 [UK 383367]
remaining activity at 3.75 µM ([1]; Well no.=8384): 90.6%
remaining activity at 1.25 µM ([2]; Well no.=8384): 90.4%

NC(=O)c1noc([C@H](CCCC2CCCCC2)CC(=O)NO)n1 [UK-383,367]
remaining activity at 3.75 µM ([1]; Well no.=5839): 103%
remaining activity at 1.25 µM ([2]; Well no.=5839): 102%

O=C(O)CSc1cc(NS(=O)(=O)c2ccc(Br)cc2)c2ccccc2c1O [UMI-77]
remaining activity at 3.75 µM ([1]; Well no.=6454): 93.1%
remaining activity at 1.25 µM ([2]; Well no.=6454): 95.1%

CN(C)CCN1C(=O)c2cccc3cc(NC(N)=O)cc(c23)C1=O [UNBS5162]
remaining activity at 3.75 µM ([1]; Well no.=6953): 98%
remaining activity at 3.75 µM ([1]; Well no.=8453): 112%
remaining activity at 1.25 µM ([2]; Well no.=6953): 98.3%
remaining activity at 1.25 µM ([2]; Well no.=8453): 109%

COc1cc2c(NC3CCN(C(C)C)CC3)nc(N3CCC(F)(F)CC3)nc2cc1OCCCN1CCCC1 [UNC0642]
remaining activity at 3.75 µM ([1]; Well no.=7187): 86.5%
remaining activity at 1.25 µM ([2]; Well no.=7187): 92.5%

O=C(c1ccc(C(=O)N2CCC(N3CCCC3)CC2)c(Nc2ccccc2)c1)N1CCC(N2CCCC2)CC1 [UNC1215]
remaining activity at 3.75 µM ([1]; Well no.=5417): 100%
remaining activity at 1.25 µM ([2]; Well no.=5417): 98.6%

CCN(CC)CCCC[C@H](NC(=O)[C@H](CC(C)C)NC(=O)[C@H](C)NC(=O)[C@H](Cc1ccccc1)NC(=O)c1ccc(C(C)(C)C)cc1)C(=O)N[C@@H](CO)C(=O)OC [UNC3866] ({Benzoyl(4-tBu)}-FAL[Lys(Et2)]S-OMe)
remaining activity at 3.75 µM ([1]; Well no.=8220): 103%
remaining activity at 1.25 µM ([2]; Well no.=8220): 101%

O=C(COc1cccc2c(=O)[nH]ccc12)c1ccccc1 [UPF 1069]
remaining activity at 3.75 µM ([1]; Well no.=4828): 96.4%
remaining activity at 1.25 µM ([2]; Well no.=4828): 94.8%
